Test results taken from publication PMC5691136, “The role of CXCR3/LRP1 cross-talk in the invasion of primary brain tumors” (Nature Communications, 2017).

Target: T1, CXCR3-A (Homo sapiens, UniProt P49682)
T1 construct: full-length human CXCR3-A (isoform A) in membrane fragments of transfected U87 and HEK-293 cells
T1 sequence (P49682 1-368): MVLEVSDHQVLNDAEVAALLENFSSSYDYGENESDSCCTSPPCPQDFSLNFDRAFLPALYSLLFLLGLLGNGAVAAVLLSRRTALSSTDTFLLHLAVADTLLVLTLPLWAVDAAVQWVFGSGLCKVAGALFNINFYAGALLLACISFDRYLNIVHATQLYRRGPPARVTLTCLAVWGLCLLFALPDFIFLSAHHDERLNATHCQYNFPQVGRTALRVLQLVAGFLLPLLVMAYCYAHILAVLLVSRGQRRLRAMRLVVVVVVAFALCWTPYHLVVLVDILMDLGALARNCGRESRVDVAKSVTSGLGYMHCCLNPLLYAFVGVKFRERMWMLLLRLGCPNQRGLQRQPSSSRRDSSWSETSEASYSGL
Assay: plasmon waveguide resonance on captured cell membrane fragments; no spectral change with U87-CTRL fragments
Format: binding

Kd: 36 ± 9 nM
SMILES: NC(N)=NCCC[C@H](NC(=O)[C@@H]1Cc2ccccc2CN1C(=O)CCC(=O)c1ccccc1)C(=O)NCC1CCCCC1 [PS372424]
